Experimental data: US10323041B2, “Bicyclic derivatives, a process for their preparation and pharmaceutical compositions containing them” (LES LABORATOIRES SERVIER, priority 2015, dated 2019)
Like-named read-outs stand apart in the source and are kept apart here.

What was measured:
Mcl-1 protein = Mcl-1 protein (Homo sapiens, UniProt Q07820); test: Inhibition of Mcl-1 by the fluorescence polarisation technique; assay type: binding
Method in brief: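 Competitive FP with fluorescein-labelled peptide ligand, 5% DMSO, ~2 h at room temperature, 11-point curves, 4-parameter IC50. Method 1: 1 nM ligand, 5 nM Mcl-1 in HEPES pH 7.4 buffer; Method 2: 10 nM ligand, 10 nM Mcl-1 in phosphate pH 7.4 buffer, 50 μM unlabelled ligand as full-inhibition control.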

[1] = system: H929 multiple myeloma tumour line; test: In vitro cytotoxicity, Microculture Tetrazolium Assay on H929 cells; assay type: cell-based; conditions: cell viability, read-out: IC50 (M) MTT H929
Protocol: The cytotoxicity studies were carried out on the H929 multiple myeloma tumour line.
The cells are distributed onto microplates and exposed to the test compounds for 48 hours. The cell viability is then quantified by a colorimetric assay, the Microculture Tetrazolium Assay (Cancer Res., 1987, 47, 939-942).

cleaved form of PARP = test: Quantification of the cleaved form of PARP in vivo; set-up: species or system mice (SCID strain); conditions: AMO-1 xenograft in SCID mice; cleaved PARP in tumour lysates, treated / control; intraveinous or oral routes
Protocol: The ability of the compounds of the invention to induce apoptosis, by measuring cleaved PARP levels, is evaluated in a xenograft model of AMO-1 multiple myeloma cells.
1.10^7 AMO-1 cells are grafted sub-cutaneously into immunosuppressed mice (SCID strain). 12 to 14 days after the graft, the animals are treated by intraveinous or oral routes with the various compounds. After treatment, the tumour masses are recovered and lysed, and the cleaved form of PARP is quantified in the tumour lysates.
The quantification is carried out using the “Meso Scale Discovery (MSD) ELISA platform” test, which specifically assays the cleaved form of PARP. It is expressed in the form of an activation factor corresponding to the ratio between the quantity of cleaved PARP in the treated mice divided by the quantity of cleaved PARP in the control mice.

[2] = Method 1 (not underlined) or Method 2 (underlined), underlining not visible, first value where cell prints two, read-out: IC50 (M) Mcl-1 FP
[3] = Homo sapiens, NCI-H929, exposed for 48 hours

Chain of Mcl-1 protein (Q07820 whole entry): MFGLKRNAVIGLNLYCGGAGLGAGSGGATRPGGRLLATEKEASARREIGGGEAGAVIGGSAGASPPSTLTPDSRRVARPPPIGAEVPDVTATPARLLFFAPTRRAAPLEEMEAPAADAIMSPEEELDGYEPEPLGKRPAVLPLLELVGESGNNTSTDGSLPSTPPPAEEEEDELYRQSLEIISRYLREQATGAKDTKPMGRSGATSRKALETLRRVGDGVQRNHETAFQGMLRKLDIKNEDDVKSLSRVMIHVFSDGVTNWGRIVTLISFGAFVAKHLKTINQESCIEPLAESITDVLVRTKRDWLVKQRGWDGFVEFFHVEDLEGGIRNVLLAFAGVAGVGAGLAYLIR

SMILES | IC50 (Mcl-1 protein; [2]) | IC50 [1, 3] | further results
COc1ccccc1CC(Nc1ncnc2oc(-c3ccc(F)cc3)c(-c3ccc(OCCN4CCN(C)CC4)c(Cl)c3C)c12)C(=O)O [Example 7, N-[(5Sa)-5-{3-chloro-2-methyl-4-[2-(4-methylpiperazin-1-yl)ethoxy]phenyl}-6-(4-fluorophenyl)furo[2,3-d]pyrimidin-4-yl]-2-methoxy-D-phenylalanine] | 1.1e-07 M | 7.57e-07 M | –
COc1ccccc1-c1nccc(COc2ccccc2C[C@@H](Nc2ncnc3oc(-c4ccc(F)cc4)c(-c4ccc(OCCN5CCN(C)CC5)c(Cl)c4C)c23)C(=O)O)n1 [Example 9, N-[(5Ra)-5-{3-chloro-2-methyl-4-[2-(4-methylpiperazin-1-yl)ethoxy]phenyl}-6-(4-fluorophenyl)furo[2,3-d]pyrimidin-4-yl]-2-{[2-(2-methoxyphenyl)pyrimidin-4-yl]methoxy}-D-phenylalanine] | 8.6e-08 M | – | IC50 ([1]; exposed for 48 hours): 6.89e-08 M
CCc1sc2cccc(OC(Cc3ccccc3)C(=O)O)c2c1-c1ccc(OCCN2CCN(C)CC2)c(Cl)c1C [Example 51, (2R)-2-[((3Sa)-3-{3-chloro-2-methyl-4-[2-(4-methylpiperazin-1-yl)ethoxy]phenyl}-2-ethyl-1-benzothiophen-4-yl)oxy]-3-phenylpropanoic acid] | 3.6e-07 M | 1.1e-05 M | IC50 (Mcl-1 protein; value after '/', presumably the other FP method (Method 1 / Method 2), read-out: IC50 (M) Mcl-1 FP, second value of the cell): 5.5e-09 M
COc1ccccc1-c1nccc(COc2ccccc2CC(Oc2ccnc3sc(-c4ccc(F)cc4)c(-c4ccc(OCCN5CCN(C)CC5)c(Cl)c4C)c23)C(=O)OC(C)OC(=O)N(C)C)n1 [Example 75, 1-[(dimethylcarbamoyl)oxy]ethyl (2R)-2-{[(3Sa)-3-{3-chloro-2-methyl-4-[2-(4-methylpiperazin-1-yl)ethoxy]phenyl}-2-(4-fluorophenyl)thieno[2,3-b]pyridin-4-yl]oxy}-3-(2-{[2-(2-methoxyphenyl)pyrimidin-4-yl]methoxy}phenyl)propanoate] | 5.61e-07 M | 7.55e-08 M | –
CCOC(=O)OC(C)OC(=O)C(Cc1ccccc1OCc1ccnc(-c2ccccc2OC)n1)Oc1ccnc2sc(-c3ccc(F)cc3)c(-c3ccc(OCCN4CCN(C)CC4)c(Cl)c3C)c12 [Example 76, 1-[(ethoxycarbonyl)oxy]ethyl (2R)-2-{[(3Sa)-3-{3-chloro-2-methyl-4-[2-(4-methylpiperazin-1-yl)ethoxy]phenyl}-2-(4-fluorophenyl)thieno[2,3-b]pyridin-4-yl]oxy}-3-(2-{[2-(2-methoxyphenyl)pyrimidin-4-yl]methoxy}phenyl)propanoate] | 1.34e-07 M | 1.01e-08 M | –
COc1ccccc1-c1nccc(COc2ccccc2CC(Oc2nccc3nc(-c4ccc(F)cc4)c(-c4ccc(OCCN5CCN(C)CC5)c(Cl)c4C)n23)C(=O)O)n1 (stereo not drawn) [Example 97a, 2-{[(3Sa)-3-{3-chloro-2-methyl-4-[2-(4-methylpiperazin-1-yl)ethoxy]phenyl}-2-(4-fluorophenyl)imidazo[1,2-c]pyrimidin-5-yl]oxy}-3-(2-{[2-(2-methoxyphenyl)pyrimidin-4-yl]methoxy}phenyl)propanoic acid] | – | – | percentage fluorescence polarization inhibition (Mcl-1 protein; @ 10 μM test compound, partial inhibitors): 55% @ 10 μM; IC50 ([1]; exposed for 48 hours): 1.16e-05 M
COc1ccccc1-c1nccc(COc2ccccc2CC(Oc2nccc3nc(-c4ccc(F)cc4)c(-c4ccc(OCCN5CCN(C)CC5)c(Cl)c4C)n23)C(=O)O)n1 (stereo not drawn) [Example 97b, 2-{[(3Ra)-3-{3-chloro-2-methyl-4-[2-(4-methylpiperazin-1-yl)ethoxy]phenyl}-2-(4-fluorophenyl)imidazo[1,2-c]pyrimidin-5-yl]oxy}-3-(2-{[2-(2-methoxyphenyl)pyrimidin-4-yl]methoxy}phenyl)propanoic acid] | 4.1e-08 M | 4.59e-07 M | –
COc1ccccc1-c1nccc(COc2ccccc2C[C@@H](Nc2ccnc3nc(-c4ccc(F)cc4)c(-c4ccc(OCCN5CCN(C)CC5)c(Cl)c4C)n23)C(=O)O)n1 [Example 102, N-[3-{3-chloro-2-methyl-4-[2-(4-methylpiperazin-1-yl)ethoxy]phenyl}-2-(4-fluorophenyl)imidazo[1,2-a]pyrimidin-5-yl]-2-{[2-(2-methoxyphenyl)pyrimidin-4-yl]methoxy}-D-phenylalanine] | – | > 3e-05 M | IC50 (M) Mcl-1 FP (Mcl-1 protein; Method 1 (not underlined) or Method 2 (underlined), underlining not visible, first value where cell prints two): no curve

Continued, in another order:

IC50 (Mcl-1 protein; [2]) | SMILES | IC50 [1, 3] | further results
2.2e-08 M | COc1ccccc1-c1nccc(COc2ccccc2CC(Oc2cccc3sc(-c4ccc(F)cc4)c(-c4ccc(OCCN5CCN(C)CC5)c(Cl)c4C)c23)C(=O)O)n1 (single isomer, unassigned) [Example 53] | 2.53e-08 M | PARP fold (cleaved form of PARP): 40.2 fold
3.8e-09 M | COc1ccccc1-c1nccc(COc2ccccc2C[C@@H](Oc2ncnc3oc(-c4ccc(F)cc4)c(-c4ccc(OCCN5CCN(C)CC5)c(Cl)c4C)c23)C(=O)O)n1 [Example 1, (2R)-2-{[5-{3-chloro-2-methyl-4-[2-(4-methylpiperazin-1-yl)ethoxy]phenyl}-6-(4-fluorophenyl)furo[2,3-d]pyrimidin-4-yl]oxy}-3-(2-{[2-(2-methoxyphenyl)pyrimidin-4-yl]methoxy}phenyl)propanoic acid] | 2.41e-08 M | PARP fold (cleaved form of PARP): 157.5 fold
6e-09 M | CCc1c(-c2c(-c3ccc(F)cc3)oc3ncnc(O[C@H](Cc4ccccc4OCc4ccnc(-c5ccccc5OC)n4)C(=O)O)c23)ccc(OCCN2CCN(C)CC2)c1Cl [Example 2, (2R)-2-{[5-{3-chloro-2-ethyl-4-[2-(4-methylpiperazin-1-yl)ethoxy]phenyl}-6-(4-fluorophenyl)furo[2,3-d]pyrimidin-4-yl]oxy}-3-(2-{[2-(2-methoxyphenyl)pyrimidin-4-yl]methoxy}phenyl)propanoic acid] | 1.45e-08 M | PARP fold (cleaved form of PARP): 216.3 fold
6.6e-09 M | COc1ccccc1-c1nccc(COc2ccccc2CC(Nc2ncnc3oc(-c4ccc(F)cc4)c(-c4ccc(OCCN5CCN(C)CC5)c(Cl)c4C)c23)C(=O)O)n1 [Example 8, N-[(5Sa)-5-{3-chloro-2-methyl-4-[2-(4-methylpiperazin-1-yl)ethoxy]phenyl}-6-(4-fluorophenyl)furo[2,3-d]pyrimidin-4-yl]-2-{[2-(2-methoxyphenyl)pyrimidin-4-yl]methoxy}-D-phenylalanine] | 1.78e-08 M | PARP fold (cleaved form of PARP): 55.4 fold
3.6e-08 M | COc1ccccc1CC(Oc1cccc2cc(-c3ccco3)n(-c3ccc(OCCN4CCN(C)CC4)c(Cl)c3C)c12)C(=O)O [Example 59, (2R)-2-{[(1Sa)-1-{3-chloro-2-methyl-4-[2-(4-methylpiperazin-1-yl)ethoxy]phenyl}-2-(furan-2-yl)-1H-indol-7-yl]oxy}-3-(2-methoxyphenyl)propanoic acid] | 1.24e-06 M | –
1.9e-08 M | COc1ccccc1CC(Oc1cccc2cc(-c3ccc(F)o3)n(-c3ccc(OCCN4CCN(C)CC4)c(Cl)c3C)c12)C(=O)O [Example 60, (2R)-2-{[(1Sa)-1-{3-chloro-2-methyl-4-[2-(4-methylpiperazin-1-yl)ethoxy]phenyl}-2-(5-fluorofuran-2-yl)-1H-indol-7-yl]oxy}-3-(2-methoxyphenyl)propanoic acid] | 5.68e-07 M | –
5.02e-09 M | COc1ccccc1-c1nccc(COc2ccccc2CC(Oc2ccnc3sc(-c4ccc(F)cc4)c(-c4ccc(OCCN5CCN(C)CC5)c(Cl)c4C)c23)C(=O)O)n1 [Example 71, (2R)-2-{[(3Sa)-3-{3-chloro-2-methyl-4-[2-(4-methylpiperazin-1-yl)ethoxy]phenyl}-2-(4-fluorophenyl)thieno[2,3-b]pyridin-4-yl]oxy}-3-(2-{[2-(2-methoxyphenyl)pyrimidin-4-yl]methoxy}phenyl)propanoic acid] | 9.08e-09 M | –
5.45e-09 M | COc1ccccc1-c1nccc(COc2ccccc2C[C@@H](Nc2ccnc3sc(-c4ccc(F)cc4)c(-c4ccc(OCCN5CCN(C)CC5)c(Cl)c4C)c23)C(=O)O)n1 [Example 84, N-[3-{3-chloro-2-methyl-4-[2-(4-methylpiperazin-1-yl)ethoxy]phenyl}-2-(4-fluorophenyl)thieno[2,3-b]pyridin-4-yl]-2-{[2-(2-methoxyphenyl)pyrimidin-4-yl]methoxy}-D-phenylalanine] | 1.09e-08 M | –
3.05e-08 M | COc1ccccc1-c1nccc(COc2ccccc2C[C@@H](Nc2nccc3sc(-c4ccc(F)cc4)c(-c4ccc(OCCN5CCN(C)CC5)c(Cl)c4C)c23)C(=O)O)n1 [Example 86, N-[3-{3-chloro-2-methyl-4-[2-(4-methylpiperazin-1-yl)ethoxy]phenyl}-2-(4-fluorophenyl)thieno[3,2-c]pyridin-4-yl]-2-{[2-(2-methoxyphenyl)pyrimidin-4-yl]methoxy}phenylalanine] | 3.59e-08 M | –
